Measured values from paper PMC3871271 (FEBS Open Bio, 2013).
Entries after “also recorded” stand apart in the source; their conditions may differ. Where two headings read alike, the source gives them in different places.

Assays:
[1] = tested on: C-SdCen WT (C-terminal domain M93-F168 of SdCen); test: ITC binding of target peptides to wild-type C-SdCen; design: species or system Scherffelia dubia; details: for Ka / ΔH: MOPS 50 mM, NaCl 100 mM, SD of fit in parenthesis; for Ka / ΔH / TΔS / ΔG: pH 7.5; for TΔS: from ΔG = ΔH − TΔS; for ΔG: ΔG = −RTln(1/Ka); for effect of calcium on binding (in words): presence vs absence of calcium
C-SdCen F109L-E144A = test: ITC binding of target peptides to C-SdCen F109L-E144A; design: species or system Scherffelia dubia; details: for effect of F109L-E144A mutation on binding (in words): F109L-E144A vs WT and single mutants; for TΔS / ΔG: F109L-E144A, pH 7.5; for TΔS: from ΔG = ΔH − TΔS; for ΔG: ΔG = −RTln(1/Ka); for ΔΔH: difference in binding enthalpy SdCen wt vs F109L-E144A; for ΔΔH / ΔΔG: EDTA 2 mM; for ΔΔG: difference in free energy SdCen wt vs F109L-E144A
C-SdCen F109L = test: ITC binding of target peptides to C-SdCen F109L; design: species or system Scherffelia dubia; details: for factor of increase in change in enthalpy (ΔH) / factor of reduction of binding constant by F109L / factor of decrease in Ka by F109L / effect of F109L mutation on binding (in words): F109L vs WT; for factor of increase in change in enthalpy (ΔH) / factor of reduction of binding constant by F109L: EDTA; for factor of decrease in Ka by F109L: temperature not stated; for TΔS / ΔG: F109L, pH 7.5; for TΔS: from ΔG = ΔH − TΔS; for ΔG: ΔG = −RTln(1/Ka); for ΔΔH: difference in binding enthalpy SdCen wt vs F109L; for ΔΔH / ΔΔG: EDTA 2 mM; for ΔΔG: difference in free energy SdCen wt vs F109L
C-SdCen E144A = test: ITC binding of target peptides to C-SdCen E144A; design: species or system Scherffelia dubia; details: for factor of decrease in affinity by E144A: absence of calcium; for TΔS / ΔG: pH 7.5; for TΔS: from ΔG = ΔH − TΔS; for ΔG: ΔG = −RTln(1/Ka); for ΔΔH: difference in binding enthalpy SdCen wt vs E144A; for ΔΔH / ΔΔG: EDTA 2 mM; for ΔΔG: difference in free energy SdCen wt vs E144A
[2] = molecular target: T1, C-terminal domain of Scherffelia dubia centrin, wild type (Scherffelia dubia, UniProt Q06827 93-168); test: ITC
T1 sequence (looked up): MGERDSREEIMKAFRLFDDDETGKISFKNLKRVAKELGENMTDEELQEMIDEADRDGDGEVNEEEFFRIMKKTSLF

[3] = molecular target: T1, C-terminal domain of Scherffelia dubia …; test: ITC; remark: listed apart in the source
[4] = WT, EDTA, 30 °C to 37 °C, becoming more negative
[5] = E144A, 30 °C, no Ca2+ (EDTA 2 mM)
[6] = E144A, 37 °C, no Ca2+ (EDTA 2 mM)

Molecule: 846-NWKLLAKGLLIRERLKR-863 [P17-XPC]
- Ka ([1]; WT, 30 °C, Ca2+ 2 mM): 59.4(9.10) 10^6 M^−1
- ΔH ([1]; WT, 30 °C, Ca2+ 2 mM): −23.4(0.16) kcal/mol
- TΔS ([1]; WT, 30 °C, Ca2+ 2 mM): -12.63 kcal/mol
- ΔG ([1]; WT, 30 °C, Ca2+ 2 mM): -10.77 kcal/mol
- factor of higher affinity for P17-XPC than for R18-Sfi1 ([1]; WT, 30 °C, EDTA): 7
- ΔG ([1]; WT, 30 °C, no Ca2+ (EDTA 2 mM)): -10.41 kcal/mol
- Ka ([1]; WT, 37 °C, Ca2+ 2 mM): 73.2(7.0) 10^6 M^−1
- ΔH ([1]; WT, 37 °C, Ca2+ 2 mM): −23.36(0.08) kcal/mol
- TΔS ([1]; WT, 37 °C, Ca2+ 2 mM): -12.18 kcal/mol
- ΔG ([1]; WT, 37 °C, Ca2+ 2 mM): -11.18 kcal/mol
- factor of higher affinity for P17-XPC than for R18-Sfi1 ([1]; WT, 37 °C, EDTA): 10
- TΔS ([1]; WT, 37 °C, no Ca2+ (EDTA 2 mM)): -29.94 kcal/mol
- difference in ΔH between P17-XPC and R18-Sfi1 ([1]; WT, EDTA, 30 °C and 37 °C): 3 kcal/mol
- factor of decrease in binding on temperature increase ([1]; WT, EDTA, 30 °C to 37 °C): 3
- factor of decrease in ΔH on temperature increase [1, 4]: 1.2
- effect of calcium on binding (in words) ([1]; WT): the presence of calcium enhanced the binding
- effect of calcium on binding (in words) ([1]; WT, listed as XPC): Calcium was not required for binding although its presence enhanced the binding; also recorded: addition of calcium enhanced the affinity
- affinity comparison XPC vs Sfi1 (in words) ([1]; centrin, ITC, present and previous work): better for XPC than for other targets such as Sfi1
- effect of F109L-E144A mutation on binding (in words) (C-SdCen F109L-E144A; listed as XPC): enhanced the negative effect of the two single mutations on XPC binding; also recorded: further reduced XPC binding
- TΔS (C-SdCen F109L-E144A; 30 °C, Ca2+ 2 mM): -3.69 kcal/mol
- ΔG (C-SdCen F109L-E144A; 30 °C, Ca2+ 2 mM): -10.42 kcal/mol
- ΔG (C-SdCen F109L-E144A; 30 °C, no Ca2+ (EDTA 2 mM)): -7.81 kcal/mol
- TΔS (C-SdCen F109L-E144A; 37 °C, Ca2+ 2 mM): -6.60 kcal/mol
- ΔG (C-SdCen F109L-E144A; 37 °C, Ca2+ 2 mM): -10.59 kcal/mol
- TΔS (C-SdCen F109L-E144A; 37 °C, no Ca2+ (EDTA 2 mM)): -13.21 kcal/mol
- ΔΔH (C-SdCen F109L-E144A; 30 °C): -11.6 kcal/mol
- ΔΔH (C-SdCen F109L-E144A; 37 °C): -19.4 kcal/mol
- ΔΔG (C-SdCen F109L-E144A; 30 °C): -2.6 kcal/mol
- ΔΔG (C-SdCen F109L-E144A; 37 °C): -2.67 kcal/mol
- factor of increase in change in enthalpy (ΔH) (C-SdCen F109L; 30 °C): 1.7
- factor of reduction of binding constant by F109L (C-SdCen F109L; 30 °C): 15
- factor of increase in change in enthalpy (ΔH) (C-SdCen F109L; 37 °C): 1.4
- factor of reduction of binding constant by F109L (C-SdCen F109L; 37 °C): 15
- factor of decrease in Ka by F109L (C-SdCen F109L): 15
- effect of F109L mutation on binding (in words) (C-SdCen F109L; listed as XPC): reduced the binding; also recorded: decreased the binding
- TΔS (C-SdCen F109L; 30 °C, Ca2+ 2 mM): -4.78 kcal/mol
- ΔG (C-SdCen F109L; 30 °C, Ca2+ 2 mM): -10.85 kcal/mol
- TΔS (C-SdCen F109L; 30 °C, no Ca2+ (EDTA 2 mM)): -11.88 kcal/mol
- ΔG (C-SdCen F109L; 30 °C, no Ca2+ (EDTA 2 mM)): -8.72 kcal/mol
- TΔS (C-SdCen F109L; 37 °C, Ca2+ 2 mM): -6.20 kcal/mol
- ΔG (C-SdCen F109L; 37 °C, Ca2+ 2 mM): -10.77 kcal/mol
- ΔΔH (C-SdCen F109L; 30 °C): -13.2 kcal/mol
- ΔΔH (C-SdCen F109L; 37 °C): -17.44 kcal/mol
- ΔΔG (C-SdCen F109L; 30 °C): -1.69 kcal/mol
- ΔΔG (C-SdCen F109L; 37 °C): -2.03 kcal/mol
- factor of decrease in affinity by E144A (C-SdCen E144A; E144A vs WT, 30 °C): 3
- factor of decrease in affinity by E144A (C-SdCen E144A; E144A vs WT, 37 °C): 4
- ΔH compared to wild type (in words) (C-SdCen E144A; E144A vs WT, EDTA): the same as for the wild type
- effect of E144A mutation on binding (in words) (C-SdCen E144A; E144A vs WT, listed as XPC): reduced the binding to XPC
- TΔS (C-SdCen E144A; E144A, 30 °C, Ca2+ 2 mM): -9.36 kcal/mol
- ΔG (C-SdCen E144A; E144A, 30 °C, Ca2+ 2 mM): -11.08 kcal/mol
- TΔS (C-SdCen E144A; [5]): -19.78 kcal/mol
- ΔG (C-SdCen E144A; [5]): -9.72 kcal/mol
- TΔS (C-SdCen E144A; E144A, 37 °C, Ca2+ 2 mM): -13.76 kcal/mol
- ΔG (C-SdCen E144A; E144A, 37 °C, Ca2+ 2 mM): -11.41 kcal/mol
- TΔS (C-SdCen E144A; [6]): -28.66 kcal/mol
- effect of calcium on affinity (in words) (C-SdCen E144A; E144A, presence vs absence of calcium): addition of calcium enhanced the affinity
- ΔΔH (C-SdCen E144A; 30 °C): -4.3 kcal/mol
- ΔΔH (C-SdCen E144A; 37 °C): -2.2 kcal/mol
- ΔΔG (C-SdCen E144A; 30 °C): -0.69 kcal/mol

Molecule: 677-SQHNRQLLRGALRRWK-692 [R18-Sfi1]
- effect of temperature increase (in words) ([1]; WT, 30 °C to 37 °C, XPC vs Sfi1): a more pronounced effect on Sfi1
- TΔS ([1]; WT, 30 °C, no Ca2+ (EDTA 2 mM)): -22.24 kcal/mol
- ΔG ([1]; WT, 30 °C, no Ca2+ (EDTA 2 mM)): -9.26 kcal/mol
- TΔS ([1]; WT, 37 °C, no Ca2+ (EDTA 2 mM)): -27.78 kcal/mol
- factor of decrease in binding on temperature increase ([1]; WT, EDTA, 30 °C to 37 °C): 4
- factor of decrease in TΔS on temperature increase [1, 4]: 1.3
- factor of decrease in ΔH on temperature increase [1, 4]: 1.2
- effect of calcium on binding (in words) ([1]; WT): the presence of calcium enhanced the binding
- effect of calcium on binding (in words) ([1]; WT, listed as Sfi1): Calcium was not required for binding although its presence enhanced the binding
- effect of F109L-E144A mutation on binding (in words) (C-SdCen F109L-E144A): exhibited the same behavior as wild-type SdCen at both temperatures
- TΔS (C-SdCen F109L-E144A; 30 °C, no Ca2+ (EDTA 2 mM)): -16.33 kcal/mol
- ΔG (C-SdCen F109L-E144A; 30 °C, no Ca2+ (EDTA 2 mM)): -8.07 kcal/mol
- TΔS (C-SdCen F109L-E144A; 37 °C, no Ca2+ (EDTA 2 mM)): -18.24 kcal/mol
- ΔΔH (C-SdCen F109L-E144A; 30 °C): -7.1 kcal/mol
- ΔΔH (C-SdCen F109L-E144A; 37 °C): -10.66 kcal/mol
- ΔΔG (C-SdCen F109L-E144A; 30 °C): -1.19 kcal/mol
- ΔΔG (C-SdCen F109L-E144A; 37 °C): -1.12 kcal/mol
- effect of F109L mutation on binding (in words) (C-SdCen F109L): reduced the binding; also recorded: decreased the binding
- factor of increase in change in enthalpy (ΔH) (C-SdCen F109L; 30 °C): 1.4
- factor of reduction of binding constant by F109L (C-SdCen F109L; 30 °C): 6
- factor of increase in change in enthalpy (ΔH) (C-SdCen F109L; 37 °C): 1.4
- factor of reduction of binding constant by F109L (C-SdCen F109L; 37 °C): 6
- factor of decrease in Ka by F109L (C-SdCen F109L): 6
- TΔS (C-SdCen F109L; 30 °C, no Ca2+ (EDTA 2 mM)): -14.96 kcal/mol
- ΔG (C-SdCen F109L; 30 °C, no Ca2+ (EDTA 2 mM)): -8.24 kcal/mol
- TΔS (C-SdCen F109L; 37 °C, no Ca2+ (EDTA 2 mM)): -22.3 kcal/mol
- ΔG (C-SdCen F109L; 37 °C, no Ca2+ (EDTA 2 mM)): -8.1 kcal/mol
- ΔΔH (C-SdCen F109L; 30 °C): -8.3 kcal/mol
- ΔΔH (C-SdCen F109L; 37 °C): -6.69 kcal/mol
- ΔΔG (C-SdCen F109L; 30 °C): -1.02 kcal/mol
- ΔΔG (C-SdCen F109L; 37 °C): -1.21 kcal/mol
- effect of E144A mutation on binding (in words) (C-SdCen E144A; E144A vs WT): no effect on the binding of C-SdCen to R18-Sfi1
- effect of E144A mutation on binding (in words) (C-SdCen E144A; E144A vs WT, listed as Sfi1): had no effect on Sfi1 binding
- TΔS (C-SdCen E144A; [5]): -21.06 kcal/mol
- ΔG (C-SdCen E144A; [5]): -9.25 kcal/mol
- TΔS (C-SdCen E144A; [6]): -26.88 kcal/mol
- ΔΔH (C-SdCen E144A; 30 °C): -1.19 kcal/mol
- ΔΔH (C-SdCen E144A; 37 °C): -0.87 kcal/mol
- ΔΔG (C-SdCen E144A; 30 °C): -0.01 kcal/mol

Molecule: Ac-SQHNRQLLRGALRRWK-NH2 [R18-HsSfi1 peptide]
- Ka [2]: 4.5e+06 M⁻¹
- dH [2]: -31.5 kcal/mol
- Ka [3]: 1.23e+06 M⁻¹
- dH [3]: -37.1 kcal/mol
